Reference: ChEMBL document CHEMBL1148069, “The punaglandins: 10-chloroprostanoids from the octocoral Telesto riisei” (J Nat Prod, 1994)
Active and inactive are the calls of the source. The calls are words filed in the database; no cut-off is given here.

How the values were obtained:
L1210 = experiment: Cytotoxicity against mouse L1210 cells; type: functional, cell-based
Ehrlich = experiment: Cytotoxicity against mouse EAC cells; type: functional, cell-based

SMILES	Activity (L1210)	Activity (Ehrlich)
CCCCC/C=C\C[C@@]1(O)C=C(Cl)C(=O)/C1=C/[C@H](OC(C)=O)[C@H](CCCC(=O)OC)OC(C)=O	Active	Active
CC/C=C\C/C=C\C[C@@]1(O)C=C(Cl)C(=O)/C1=C/[C@H](OC(C)=O)[C@H](CCCC(=O)OC)OC(C)=O	Active	Active
